Starred links: 1 amine or outer side, 2 acyl side, 3 side chain; linkers in the order of their positions; H or OH if unused. Non-standard residues stand in square brackets, D forms with d. Residues, ends and D or L forms follow the SMILES beside them. Groups on a side chain read outwards from the residue. *: point of attachment. X15 = CCCCCCCCCCCCCCCCCC(=O)N[C@@H](CCC(=O)N[C@@H](CCC(=O)N[C@@H](CCC(=O)NCCCOCCOCCOCCCNC(=O)COCC(=O)NCCCOCCOCCOCCCNC(=O)COCC(=O)NCCCOCCOCCOCCCNC(=O)COCC(=O)*)C(=O)O)C(=O)O)C(=O)O; X1 = CCCCCCCCCCCCCCCC(=O)N[C@@H](CCC(=O)N[C@@H](CCC(=O)N[C@@H](CCC(=O)NCCCOCCOCCOCCCNC(=O)CCC(=O)NCCCOCCOCCOCCCNC(=O)CCC(=O)NCCCOCCOCCOCCCN*)C(=O)O)C(=O)O)C(=O)O; Trp(5-F) = N[C@@H](Cc1c[nH]c2ccc(F)cc12)C(=O)O; Suc = O=C(CCC(=O)[*:2])[*:1]; αMeK = C[C@](N)(CCCCN)C(=O)O; Aib = CC(C)(N)C(=O)O
Target: T1, RXFP1 (Homo sapiens, UniProt Q9HBX9)
T1 construct: OVCAR5 cells expressing endogenous RXFP1; endogenous in cells; host or cells: OVCAR5
T1 sequence (Q9HBX9 1-757): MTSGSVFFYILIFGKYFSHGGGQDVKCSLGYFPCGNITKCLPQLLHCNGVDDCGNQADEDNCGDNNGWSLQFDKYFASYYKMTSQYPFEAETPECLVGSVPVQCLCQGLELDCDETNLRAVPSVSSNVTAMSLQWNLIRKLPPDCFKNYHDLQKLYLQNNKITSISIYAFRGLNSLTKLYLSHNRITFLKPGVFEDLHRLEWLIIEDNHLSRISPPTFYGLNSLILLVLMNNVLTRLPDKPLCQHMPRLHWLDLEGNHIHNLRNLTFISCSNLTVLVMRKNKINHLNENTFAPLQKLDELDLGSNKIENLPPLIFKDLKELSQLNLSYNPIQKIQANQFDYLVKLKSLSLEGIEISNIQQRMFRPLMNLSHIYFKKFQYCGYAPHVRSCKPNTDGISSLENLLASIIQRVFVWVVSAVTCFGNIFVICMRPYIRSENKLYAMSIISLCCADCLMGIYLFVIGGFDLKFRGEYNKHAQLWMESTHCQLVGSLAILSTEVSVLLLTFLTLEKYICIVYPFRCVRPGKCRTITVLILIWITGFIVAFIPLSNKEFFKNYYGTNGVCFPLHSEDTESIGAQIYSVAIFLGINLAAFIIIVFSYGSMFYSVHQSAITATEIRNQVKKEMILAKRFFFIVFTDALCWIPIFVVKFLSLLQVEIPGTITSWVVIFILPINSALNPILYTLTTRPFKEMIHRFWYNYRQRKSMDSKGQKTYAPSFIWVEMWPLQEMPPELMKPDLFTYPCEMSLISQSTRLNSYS
Assay: OVCAR5 cAMP assay (HTRF)
Type: cell-based
Conditions: for EC50: OVCAR 5 cells expressing endogenous RXFP1, cAMP readout; for Emax: OVCAR 5 cells, maximal cAMP relative to H2-relaxin
Procedure, shortened: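 Endogenous RXFP1 in OVCAR5 cells, pretreated 40 min at 37° C with 1 mM IBMX, then exposed to increasing peptide concentrations in serum-free medium for 30 min at 37° C. cAMP read by HTRF; EC50 by variable-slope sigmoidal fit, Emax as % of H2-relaxin maximal cAMP in same run.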

Row | Compound | EC50 [nM] | Emax [%]
1 | CCCCCCCCCCCCCCCC(=O)N[C@@H](CCC(=O)N[C@@H](CCC(=O)N[C@@H](CCC(=O)NCCCOCCOCCOCCCNC(=O)CCC(=O)NCCCOCCOCCOCCCNC(=O)CCC(=O)NCCCOCCOCCOCCCNC(=O)CCC(=O)NCCCC[C@H](NC(=O)CNC(=O)[C@H](CCC(=O)O)NC(=O)C(C)(C)NC(=O)C(C)(C)NC(=O)[C@@H](NC(=O)[C@H](CCCCNC(C)=O)NC(=O)[C@H](C)NC(=O)[C@H](CCCNC(=N)N)NC(=O)[C@@H](NC(=O)[C@H](CCCNC(=N)N)NC(=O)[C@H](CCC(=O)O)NC(=O)[C@H](CCCNC(=N)N)NC(=O)CNC(=O)[C@H](CCC(=O)O)NC(=O)[C@H](CC(C)C)NC(C)=O)C(C)C)[C@@H](C)CC)C(=O)N[C@@H](CO)C(=O)N[C@H](C(=O)N[C@@H](Cc1c[nH]c2ccc(F)cc12)C(=O)N[C@@H](CO)C(=O)NC(C)(C)C(=O)N[C@@H](CCCNC(=N)N)C(=O)N[C@@H](CCCNC(=N)N)C(=O)N[C@@H](CCCCNC(C)=O)C(N)=O)[C@@H](C)O)C(=O)O)C(=O)O)C(=O)O [compound 92] (Ac-LEGRERVRAK(Ac)I[Aib][Aib]EGK([Suc-X1])ST[Trp(5-F)]S[Aib]RRK(Ac)-NH2) | 0.1 | 99
2 | CCCCCCCCCCCCCCCCCC(=O)N[C@@H](CCC(=O)N[C@@H](CCC(=O)N[C@@H](CCC(=O)NCCCOCCOCCOCCCNC(=O)COCC(=O)NCCCOCCOCCOCCCNC(=O)COCC(=O)NCCCOCCOCCOCCCNC(=O)COCC(=O)NCCCC[C@H](NC(=O)CNC(=O)[C@H](CCC(=O)O)NC(=O)C(C)(C)NC(=O)C(C)(C)NC(=O)[C@@H](NC(=O)[C@H](CCCCNC(C)=O)NC(=O)[C@H](C)NC(=O)[C@H](CCCNC(=N)N)NC(=O)[C@@H](NC(=O)[C@H](CCCCN)NC(=O)[C@H](CCC(=O)O)NC(=O)[C@H](CCCNC(=N)N)NC(=O)CNC(=O)[C@H](CCC(=O)O)NC(=O)[C@H](CC(C)C)NC(C)=O)C(C)C)[C@@H](C)CC)C(=O)N[C@@H](CO)C(=O)N[C@H](C(=O)N[C@@H](Cc1ccccc1)C(=O)N[C@@H](CO)C(=O)N[C@@](C)(CCCCN)C(=O)N[C@@H](CCCNC(=N)N)C(=O)N[C@@H](C)C(=O)N[C@@H](CCCCNC(C)=O)C(N)=O)[C@@H](C)O)C(=O)O)C(=O)O)C(=O)O [compound 32] (Ac-LEGREKVRAK(Ac)I[Aib][Aib]EGK(X15)STFS[αMeK]RAK(Ac)-NH2) | 0.1 | 97
3 | CCCCCCCCCCCCCCCC(=O)N[C@@H](CCC(=O)N[C@@H](CCC(=O)N[C@@H](CCC(=O)NCCCOCCOCCOCCCNC(=O)CCC(=O)NCCCOCCOCCOCCCNC(=O)CCC(=O)NCCCOCCOCCOCCCNC(=O)CCC(=O)NCCCC[C@H](NC(=O)CNC(=O)[C@H](CCC(=O)O)NC(=O)C(C)(C)NC(=O)C(C)(C)NC(=O)[C@@H](NC(=O)[C@H](CCC(N)=O)NC(=O)[C@H](C)NC(=O)[C@H](CCCNC(=N)N)NC(=O)[C@@H](NC(=O)[C@H](CCCCN)NC(=O)[C@H](CCC(=O)O)NC(=O)[C@H](CCCNC(=N)N)NC(=O)CNC(=O)[C@H](CCC(=O)O)NC(=O)[C@H](CC(C)C)NC(C)=O)C(C)C)[C@@H](C)CC)C(=O)N[C@@H](CO)C(=O)N[C@H](C(=O)N[C@@H](Cc1ccccc1)C(=O)N[C@@H](CO)C(=O)N[C@@](C)(CCCCN)C(=O)N[C@@H](CCCNC(=N)N)C(=O)N[C@@H](C)C(=O)N[C@@H](CCCCNC(C)=O)C(N)=O)[C@@H](C)O)C(=O)O)C(=O)O)C(=O)O [compound 48] (Ac-LEGREKVRAQI[Aib][Aib]EGK([Suc-X1])STFS[αMeK]RAK(Ac)-NH2) | 0.45 | 96
